Source: paper PMC6768323, “Adverse Maternal, Fetal, and Postnatal Effects of Hexafluoropropylene Oxide Dimer Acid (GenX) from Oral Gestational Exposure in Sprague-Dawley Rats” (Environmental Health Perspectives, 2019)
Values joined by “and” are separate entries in the source; they are usually repeats but may differ in a detail not shown here. Equal values may be shown once.

Columns and labels:
[1] = tested on: PPAR signaling pathway genes, maternal liver; assay: Maternal liver (GD18) PPAR gene array, fold induction versus control; oral dosing GD14-18; rows per gene in dose order 1, 3, 10, 30, 62.5, 125, 250, 500 mg/kg/d; type: in vivo, Sprague-Dawley rats
Description: A total of three blocks of 15 dams per block were dosed once daily from GD14–18 with either water vehicle (control) or HFPO-DA to evaluate fetal and maternal effects (Figure 1A). The first block of dams was dosed with control, 62.5, 125, 250, or 500mg/kg HFPO-DA ( n=3 dams for each). The second and third blocks of dams were dosed with control, 1, 3, 10, or 30mg/kg HFPO-DA ( n=3 per dose per block). Total sample sizes were n=9 for control, n=6 for 1, 3, 10, 30mg/kg , and n=3 for 62.5, 125, 250, and 500mg/kg HFPO-DA. In the first two blocks, spanning the entire dose range, we evaluated fetal testis testosterone production, fetal testis gene expression, fetal and maternal liver gene expression, fetal body weight, and maternal serum thyroid hormone and lipid concentrations. In the third block, encompassing the lower dose range utilized here, we collected fetal plasma for measuring HFPO-DA concentrations. Across all three blocks we evaluated maternal weight gain during dosing, reproductive output (number of fetuses and resorptions), maternal serum HFPO-DA concentration, and maternal liver weight at necropsy.
For the first two blocks, spanning the full dose range, late gestation (GD18) dams were euthanized by decapitation at ∼2h after the final oral dose [ ∼0830–1000 hours Eastern Standard Time (EST)]. Trunk blood was collected and serum isolated via centrifugation ( 10,000×g for 15 min at 4°C) in vacutainer tubes, transferred to 1.5-mL microcentrifuge tubes and stored at −80°C . Dam liver weight was recorded and a sample of liver tissue was collected into a polypropylene microcentrifuge tube containing 500μL TRIzol Reagent (Invitrogen) on ice. Fetuses were removed and two randomly selected fetuses per litter were weighed. Fetal testes were collected from all male pups with a single testis from the first three males used for determination of ex vivo testosterone production and the remaining testes were homogenized and preserved in TRIzol Reagent for gene expression analysis. The liver was collected from a single, randomly selected fetus per dam/litter for gene expression analysis and transferred to a polypropylene microcentrifuge tube containing 500μL TRIzol Reagent (Invitrogen) on ice. Both dam and fetal liver samples were individually homogenized using a Bullet Blender (Next Advance) with 1-mm zirconium oxide beads, transferred to clean tubes, and stored at −80°C prior to RNA extraction (see below). Ex vivo fetal testis testosterone production was measured as previously reported ([Wilson et al. 2004b]) except the radioimmunoassay (RIA) utilized here was supplied by ALPCO (Catalog No. 72-TESTO-CT2, ALPCO). Briefly, one testis was isolated from each of three separate male fetuses in each litter and incubated in a humidified atmosphere at 37°C for 3 h in 500μL of M-199 media (phenol red–free; Hazelton Biologics, Inc.) supplemented with 10% dextran-coated charcoal-stripped fetal bovine serum (Hyclone Laboratories) in 24-well plates under gentle agitation. After incubation, media were removed and stored in siliconized microcentrifuge tubes at −80°C until RIA analyses, which were performed according to manufacturer specifications.
Gene expression in fetal testes and fetal/maternal livers was assessed using reverse transcriptase real-time PCR of cDNA synthesized from RNA extracted from sample homogenates. RNA extraction was conducted according to TRIzol Reagent manufacturer specifications using chloroform and isopropanol. Following extraction, RNA was purified using the RNeasy Mini Kit (Catalog No. 74104; Qiagen). RNA concentration and purity (260:280 ratio ≥1.8 ) were determined with a NanoDrop 2000 spectrophotometer (Thermo Scientific). For the fetal testes, a 96-well gene array plate was previously custom designed to contain 89 target genes and 3 housekeeping genes, an intra-assay control, a genomic DNA control, a reverse transcriptase control, and a positive PCR control [see Table S1; SABioscience; ([Hannas et al. 2012])]. […]

[2] = parameters: method as in DuPont 2017; conditions: ref DuPont 2017; cited from earlier work

For `O=C(O)C(F)(OC(F)(F)C(F)(F)C(F)(F)F)C(F)(F)F` (stereo not drawn) [HFPO-DA, Hexafluoropropylene oxide dimer acid], which Acox3 ([1]; dose order) is on record?
Its Acox3 is 1.3 fold and 0.9 fold and 1.2 fold and 1.1 fold and 1.0 fold.

What about the Acsl1 ([1]; dose order) of the same molecule?
Its Acsl1 is 1.3 fold and 1.5 fold and 1.1 fold and 1.7 fold and 1.6 fold and 1.8 fold.

What about the Acsl4 ([1]; dose order) of the same molecule?
Its Acsl4 is 1.0 fold and 0.7 fold and 0.9 fold and 1.3 fold and 1.2 fold.

What about the Angptl4 ([1]; dose order) of the same molecule?
Its Angptl4 is 2.3 fold and 3.4 fold and 2.1 fold and 3.6 fold and 3.0 fold and 2.9 fold and 2.5 fold.

And the Apoa1 ([1]; dose order)?
Its Apoa1 is 0.9 fold and 1.0 fold and 0.7 fold.

And the Apoe ([1]; dose order)?
The Apoe was 1.2 fold and 0.8 fold and 0.9 fold and 0.7 fold.

What about the Cd36 ([1]; dose order) of the same molecule?
Its Cd36 is 0.8 fold and 1.2 fold and 0.9 fold and 1.0 fold and 1.1 fold.

And the Clu ([1]; dose order)?
Its Clu is 1.1 fold and 1.4 fold and 0.8 fold and 1.3 fold and 1.2 fold and 1.5 fold and 1.6 fold.

What about the Creb1 ([1]; dose order) of the same molecule?
The Creb1 was 1.1 fold and 0.9 fold and 1.0 fold and 0.8 fold.

What about the Crebbp ([1]; dose order) of the same molecule?
Its Crebbp is 1.3 fold and 0.9 fold and 1.0 fold.

And the Dgat1 ([1]; dose order)?
Its Dgat1 is 1.1 fold and 1.3 fold and 1.2 fold and 1.5 fold and 1.6 fold and 1.8 fold and 1.9 fold.

And the Ep300 ([1]; dose order)?
Its Ep300 is 1.3 fold and 1.4 fold and 0.8 fold and 1.1 fold and 1.0 fold.

And the Etfdh ([1]; dose order)?
The Etfdh was 1.2 fold and 1.6 fold and 1.4 fold and 1.5 fold.

And the Fabp5 ([1]; dose order)?
Its Fabp5 is 1.0 fold and 1.3 fold and 1.2 fold and 0.8 fold.

What about the Fabp7 ([1]; dose order) of the same molecule?
Its Fabp7 is 2.0 fold and 1.1 fold and 1.9 fold and 1.8 fold and 1.3 fold and 1.7 fold.

And the Gk ([1]; dose order)?
Its Gk is 1.2 fold and 1.1 fold and 1.3 fold and 1.4 fold and 0.8 fold.

And the Hif1a ([1]; dose order)?
The Hif1a was 1.2 fold and 1.0 fold and 1.1 fold and 1.3 fold.

And the Hspd1 ([1]; dose order)?
The Hspd1 was 1.1 fold and 1.2 fold and 1.3 fold and 1.9 fold and 1.8 fold and 2.2 fold and 2.1 fold.

What about the Ilk ([1]; dose order) of the same molecule?
Its Ilk is 1.2 fold and 0.9 fold and 1.1 fold and 1.0 fold.

And the Klf10 ([1]; dose order)?
Its Klf10 is 1.8 fold and 2.0 fold and 1.5 fold and 2.5 fold and 2.3 fold and 2.4 fold.

What about the Lpin1 ([1]; dose order) of the same molecule?
The Lpin1 was 1.2 fold and 1.4 fold and 0.8 fold and 1.1 fold and 1.0 fold and 0.9 fold.

What about the Med1 ([1]; dose order) of the same molecule?
Its Med1 is 1.2 fold and 1.3 fold and 0.7 fold and 1.0 fold and 0.8 fold and 0.9 fold and 1.1 fold.

What about the Ncoa3 ([1]; dose order) of the same molecule?
Its Ncoa3 is 1.4 fold and 0.8 fold and 1.0 fold and 0.9 fold.

What about the Ncoa6 ([1]; dose order) of the same molecule?
The Ncoa6 was 1.4 fold and 1.2 fold and 1.1 fold and 0.7 fold and 0.8 fold and 0.9 fold.

What about the Nr1h3 ([1]; dose order) of the same molecule?
The Nr1h3 was 1.1 fold and 1.5 fold and 0.8 fold and 1.6 fold and 1.3 fold.

And the Pdpk1 ([1]; dose order)?
Its Pdpk1 is 0.9 fold and 1.0 fold and 0.8 fold and 1.1 fold.

And the Pltp ([1]; dose order)?
The Pltp was 1.2 fold and 0.7 fold and 0.9 fold and 1.4 fold and 1.1 fold and 1.0 fold.

What about the Ppara ([1]; dose order) of the same molecule?
Its Ppara is 0.8 fold and 0.7 fold and 0.6 fold and 1.0 fold and 0.9 fold and 1.1 fold.

And the Ppargc1b ([1]; dose order)?
Its Ppargc1b is 1.1 fold and 1.3 fold and 0.9 fold and 0.8 fold and 0.7 fold.

And the Pprc1 ([1]; dose order)?
The Pprc1 was 1.2 fold and 1.0 fold and 1.4 fold and 1.5 fold.

What about the Pten ([1]; dose order) of the same molecule?
The Pten was 0.8 fold and 1.1 fold and 0.9 fold and 1.0 fold.

What about the Pyy ([1]; dose order) of the same molecule?
Its Pyy is 1.6 fold and 1.3 fold and 1.1 fold and 1.2 fold and 2.0 fold and 2.1 fold and 1.8 fold.

And the Rxra ([1]; dose order)?
Its Rxra is 1.2 fold and 1.4 fold and 0.7 fold and 1.0 fold and 1.1 fold.

And the Rxrb ([1]; dose order)?
The Rxrb was 1.5 fold and 1.4 fold and 0.9 fold and 1.1 fold and 0.8 fold and 1.0 fold.

And the Rxrg ([1]; dose order)?
Its Rxrg is 1.5 fold and 1.6 fold and 1.1 fold and 1.7 fold and 1.3 fold.

And the Sirt1 ([1]; dose order)?
The Sirt1 was 1.0 fold and 1.1 fold and 0.8 fold and 0.9 fold.

What about the Slc27a1 ([1]; dose order) of the same molecule?
The Slc27a1 was 1.5 fold and 1.6 fold and 0.9 fold and 1.4 fold and 1.1 fold and 1.0 fold and 1.3 fold.

And the Slc27a2 ([1]; dose order)?
Its Slc27a2 is 1.3 fold and 1.8 fold and 2.1 fold and 2.2 fold and 2.3 fold.

And the Slc27a4 ([1]; dose order)?
The Slc27a4 was 1.3 fold and 1.5 fold and 0.8 fold and 1.0 fold and 1.1 fold and 0.9 fold.

And the Tgs1 ([1]; dose order)?
Its Tgs1 is 0.8 fold and 0.9 fold and 0.7 fold and 1.1 fold.

And the “number of up-regulated genes shared by maternal and fetal livers” value ([1]; rat, in vivo)?
Its value is 16 genes.

And the “highest detected plasma concentration from a worker” value [2]?
The value was 0.169 µg/mL.
